Data taken from patent US11891366B1, “4-methoxy-n′-(2-(5-phenyl-1,3,4-oxadiazol-2-ylthio)acetoxy)benzimidamide as an antimicrobial compound” (KING FAISAL UNIVERSITY, priority 2023, dated 2024).

Columns and labels:
Type in all cases: cell-based
Pseudomonas aeruginosa = assay: Agar plate disc-diffusion, antibacterial activity (inhibition zone); conditions: nutrient agar, 37° C., 48 hours
Method: (§1) The agar plate disc-diffusion method was applied. […] The discs were then placed onto the surface of agar plates (nutrient agar for bacteria and Sabouraud's dextrose agar for fungi) seeded with the test organism. Each plate contained 15 mL of the agar medium, previously seeded with 0.2 mL of the broth culture of each organism pregrown for 18 hours. The plates were incubated at 37° C. for 48 hours, and 72 hours for fungi. The inhibition zones were measured in millimeters (mm). Discs impregnated with DMSO were used as a control, and its inhibition zone was subtracted from the tested compound actual inhibition zone.

Escherichia coli = assay: as above; conditions: nutrient agar, 37° C., 48 hours
Method: as §1

Staphylococcus aureus = assay: as above; conditions: nutrient agar, 37° C., 48 hours
Method: as §1

Bacillus Cereus = assay: as above; conditions: nutrient agar, 37° C., 48 hours
Method: The agar plate disc-diffusion method was applied. Sterilized filter papers (6 mm in diameter) were wetted with 10 μL of a solution 4-methoxy-N′-(2-(5-phenyl-1,3,4-oxadiazol-2-ylthio)acetoxy)benzimidamide (3) to be tested, containing 10 mg/mL in DMSO, and the discs were allowed to air dry. The discs were then placed onto the surface of agar plates (nutrient agar for bacteria and Sabouraud's dextrose agar for fungi) seeded with the test organism. Each plate contained 15 mL of the agar medium, previously seeded with 0.2 mL of the broth culture of each organism pregrown for 18 hours. The plates were incubated at 37° C. for 48 hours, and 72 hours for fungi. The inhibition zones were measured in millimeters (mm). Discs impregnated with DMSO were used as a control, and its inhibition zone was subtracted from the tested compound actual inhibition zone.

[1] = system: Chrysosporium keratinophilum; assay: Agar plate disc-diffusion, antifungal activity (inhibition zone); conditions: Sabouraud's dextrose agar, 37° C., 72 hours
Method: as §1

Aspergillus flavus = assay: as above; conditions: Sabouraud's dextrose agar, 37° C., 72 hours
Method: as §1

[2] = A = concentration of comp. = 10,000 μL
[3] = B = concentration of comp. = 30,000 μL
[4] = C = concentration of comp. = 50,000 μL

Row | Structure (SMILES) | inhibition zone (Pseudomonas aeruginosa; [2]) | inhibition zone (Pseudomonas aeruginosa; [3]) | inhibition zone (Pseudomonas aeruginosa; [4]) | inhibition zone (Escherichia coli; [2]) | inhibition zone (Escherichia coli; [3]) | inhibition zone (Escherichia coli; [4]) | inhibition zone (Staphylococcus aureus; [2]) | inhibition zone (Staphylococcus aureus; [3]) | inhibition zone (Staphylococcus aureus; [4]) | inhibition zone (Bacillus Cereus; [2]) | inhibition zone (Bacillus Cereus; [3]) | inhibition zone (Bacillus Cereus; [4]) | inhibition zone [1, 2] | inhibition zone [1, 3] | inhibition zone [1, 4] | inhibition zone (Aspergillus flavus; [2]) | inhibition zone (Aspergillus flavus; [3]) | inhibition zone (Aspergillus flavus; [4])
1 | O=C(O)c1cn(C2CC2)c2cc(N3CCNCC3)c(F)cc2c1=O [Cip., ciprofloxacin] | 29 mm | 30 mm | 53 mm | 30 mm | 39 mm | 60 mm | 43 mm | 44 mm | 53 mm | 29 mm | 30 mm | 42 mm | 29 mm | 30 mm | 53 mm | 29 mm | 30 mm | 42 mm
2 | COc1ccc(/C(N)=N/OC(=O)CSc2nnc(-c3ccccc3)o2)cc1 [Compound 3, 4-methoxy-N′-(2-(5-phenyl-1,3,4-oxadiazol-2-ylthio)acetoxy)benzimidamide] | 23 mm | 28 mm | 41 mm | 26 mm | 34 mm | 49 mm | 22 mm | 30 mm | 45 mm | 27 mm | 29 mm | 41 mm | 26 mm | 28 mm | 41 mm | 21 mm | 25 mm | 38 mm
